Data set [1] relates to carboxyl esterase (EC 3.1.1.1). Put plainly: esterase sensitivity. It counts as biochemical. Particulars: for esterase sensitivity (activity 20,000 U/l): 100 μl carboxyl esterase about 20,000 U/l, 578 nm; for Esterase sensitivity: emulsion prepared as in Example 22. The protocol:
(§1) 1.2 g. Sodium desoxycholate and 0.15 mg. colipase (from the pig) are dissolved in 60 ml. distilled water, with stirring. A solution of 70 mg. of the lipase substrate 1,2-0-dioctyl-rac-glycero-3-azelaic acid resorufin ester (Example 4) in 1.7 ml. n-propanol are injected herein under pressure in the thinnest possible stream, with vigorous stirring. A solution which, in 200 ml. distilled water, contains 1.5 g. urea, 1 g. sodium desoxycholate, 200 mg. sodium chloride, 800 mg. TRIS and 107 mg. TRIS.HCl, is well mixed with the above-produced emulsion.
(§2) 2.5 ml. of the so produced solution are mixed with 100 μ. of sample (serum). The reaction is monitored photometrically at 578 nm Hg.
For the determination of the esterase sensitivity, instead of the sample there were added 100 μl. carboxyl esterase (EC 3.1.1.1; about 20,000 U/1. Boehringer Mannheim GmbH, Order No. 10 46 98) and the extinction change monitored as described above.

Data set [2] can be described thus: blank change (water instead of sample). It counts as physicochemical. The following applies: 100 μl water instead of sample; extinction change at 578 nm. The protocol: as §1, §2
The blank change was determined with a reagent according to Example 1 and various lipase substrates. Instead of the sample, 100 μ1. water were added and the extinction change monitored photometrically at 578 nm (ΔmE/min.).

For data set [3], the system named is lipase (EC 3.1.1.3). Put plainly: lipase sensitivity. It counts as biochemical. The following applies: for lipase sensitivity (activity 100 U/l): 100 μl lipase about 100 U/l, 578 nm. The protocol: as §1, §2
For the determination of the lipase sensitivity, instead of the sample there were added 100 μl. lipase (EC 3.1.1.3; about 100 U/1., Boehringer Mannheim GmbH, Order No. 41 45 90) and the extinction change monitored as described above.

The nature of data set [4]: blank change (water instead of sample). It counts as physicochemical.
Data set [5] deals with lipase (EC 3.1.1.3). Put plainly: lipase sensitivity. In kind it is biochemical.
Setting [6] is: emulsion prepared as in Example 22.
Setting [7] is: taurodesoxycholate/TRIS reagent pH 7.5, 578 nm.
The mark [8] stands for this setting: fluorometric, 25° C., excitation 364 nm, emission 448 nm.

As to `CCCCCCOCC(COC(=O)CCCC(=O)Oc1ccc2nc3ccc(=O)cc-3oc2c1)OCCCCCC` (racemic) [Example 1, 1,2-O-Dihexyl-rac-glycero-3-glutaric acid resorufin ester], the “esterase sensitivity (activity 20,000 U/l)” value in data set [1] is > 1000 ΔmE/min. Besides, the blank in data set [2] is recorded as 13.2 ΔmE/min.
In the case of `CCCCCCCCOCC(COC(=O)CCCC(=O)Oc1ccc2nc3ccc(=O)cc-3oc2c1)OCCCCCCCC` (racemic) [Example 2, 1,2-O-Dioctyl-rac-glycero-3-glutaric acid resorufin ester], the “esterase sensitivity (activity 20,000 U/l)” value in data set [1] was 144.0 ΔmE/min. Besides, the blank in data set [2] was 7.0 ΔmE/min. Moreover, in the data set on lipase (EC 3.1.1.3) [3], the “lipase sensitivity (activity 100 U/l)” value is ~ 100 ΔmE/min.
Taken in the same sequence, the figures for `CCCCCCCCOCC(COC(=O)CCCCCC(=O)Oc1ccc2nc3ccc(=O)cc-3oc2c1)OCCCCCCCC` (racemic) [Example 3, 1,2-O-dioctyl-rac-glycero-3-pimelic acid resorufin ester] were 112.5 ΔmE/min, 3.9-4.1 ΔmE/min and 12.28 ΔmE/min.
Taken in the same sequence, the figures for `CCCCCCCCOCC(COC(=O)CCCCCCCC(=O)Oc1ccc2nc3ccc(=O)cc-3oc2c1)OCCCCCCCC` (racemic) [Example 4, 1,2-O-dioctyl-rac-glycero-3-azelaic acid resorufin ester] were 33.6 ΔmE/min, 0.4-0.8 ΔmE/min and 18.04 ΔmE/min.
Taken in the same sequence, the figures for `CCCCCCCCCCOCC(COC(=O)CCCC(=O)Oc1ccc2nc3ccc(=O)cc-3oc2c1)OCCCCCCCCCC` (racemic) [Example 5, 1,2-O-Didecyl-rac-glycero-3-glutaric acid resorufin ester] were 30.2 ΔmE/min, 2.4-3.0 ΔmE/min and 22.18 ΔmE/min.
Turning to `CCCCCCCCCCCOCC(COC(=O)CCCC(=O)Oc1ccc2nc3ccc(=O)cc-3oc2c1)OCCCCCCCCCCC` (racemic) [Example 6, 1,2-O-Diundecyl-rac-glycero-3-glutaric acid resorufin ester], the “esterase sensitivity (activity 20,000 U/l)” value in data set [1] is 23.6 ΔmE/min. Besides, in data set [2], the blank was 2.0-2.8 ΔmE/min. Also, the “lipase sensitivity (activity 100 U/l)” value in the data set on lipase (EC 3.1.1.3) [3] was 6.96 ΔmE/min.
On the same counts, the results for `CCCCCCCCCCCCOCC(COC(=O)CCCC(=O)Oc1ccc2nc3ccc(=O)cc-3oc2c1)OCCCCCCCCCCCC` (racemic) [Example 7, 1,2-O-Dilauryl-rac-glycero-3-glutaric acid resorufin ester] are 34.8 ΔmE/min, 2.4-3.0 ΔmE/min and 10.9 ΔmE/min.
On the same counts, the results for `CCCCCCCCCCCCOCC(COC(=O)CCCCCC(=O)Oc1ccc2nc3ccc(=O)cc-3oc2c1)OCCCCCCCCCCCC` (racemic) [Example 8, 1,2-O-Dilauryl-rac-glycero-3-pimelic acid resorufin ester] are 27.8 ΔmE/min, 2.1-2.4 ΔmE/min and 4.68 ΔmE/min.
Taken in the same sequence, the figures for `CCCCCCCCCCOCC(COC(=O)CCCCCC(=O)Oc1ccc2nc3ccc(=O)cc-3oc2c1)OCCCCCCCCCC` (racemic) [Example 20, 1,2-0-Didecyl-rac-glycero-3-pimelic acid resorufin ester] were 48.7 ΔmE/min, 1.3-2.0 ΔmE/min and 9.8 ΔmE/min.
For `CCCCCCCCCCCCOCC(COC(=O)CCCCCCCC(=O)Oc1ccc2nc3ccc(=O)cc-3oc2c1)OCCCCCCCCCCCC` (racemic) [Example 21, 1,2-0-Dilauryl-rac-glycero-3-azelaic acid resorufin ester], the “esterase sensitivity (activity 20,000 U/l)” value in data set [1] is reported as 9.5 ΔmE/min. Further, the blank in data set [2] is 9.8-11.9 ΔmE/min. The “lipase sensitivity (activity 100 U/l)” value in the data set on lipase (EC 3.1.1.3) [3] is on record as 13.2 ΔmE/min.
In the case of `CCCCCCCCCCCCOCC(COC(=O)CCCCCCCCCCCCC(=O)Oc1ccc2nc3ccc(=O)cc-3oc2c1C)OCCCCCCCCCCCC` (racemic) [Example 28, 1,2-0-Dilauryl-rac-glycero-3-tetradecandiacid (6-methylresorufin) ester], the blank in data set [4] (setting [6]) is listed as 0.2 mE/min. This compound registered an Esterase sensitivity in data set [1] of 0.7 mE/min. This compound also came in with a Lipase sensitivity with lipase (EC 3.1.1.3) [3] (setting [6]) of 23.6 mE/min per 100 U/1.
In the data set with lipase (EC 3.1.1.3) [5] (setting [7]), `CCCCCCCCCCCCOCC(COC(=O)CCCC(=O)Oc1ccc2nc3ccc(=O)cc-3oc2c1C)OCCCCCCCCCCCC` (racemic) [Example 29, 1,2-0-Dilauryl-rac-qlycero-3-glutaric-acid (6-methyl-resorufin)-ester] had a Lipase sensitivity of 28 mE/min per 100 U/l. The same compound returned a blank in data set [4] (setting [7]) of 0.4 mE/min.
`CCCCCCCCCCCCOCC(COC(=O)CCCC(=O)Oc1ccc2c(C)cc(=O)oc2c1)OCCCCCCCCCCCC` (racemic) [Example 31, 1,2-0-Dilauryl-rac-glycero-3-glutaric acid-(4-methylumbelliferyl)-ester]: in the data set with lipase (EC 3.1.1.3) [5] (setting [8]), the Lipase sensitivity is 28 mE/min per 100 U/1. Further, in data set [4] (setting [8]), the blank is recorded as 0.4 mE/min.
For the compound `CCCCCCCCCCCCOCC(COC(=O)CCCC(=O)Sc1ccc([N+](=O)[O-])cc1)OCCCCCCCCCCCC` (racemic) [Example 32, 1,2-0-Dilauryl-rac-glycero-3-qlutaric acid-(p-nitrothiophenyl)-ester], the Lipase sensitivity with lipase (EC 3.1.1.3) [5] (CHES reagent pH 8.3, 405 nm) is given as 12.2 mE/min per 100 U/1. For the same compound, the blank in data set [4] (CHES reagent pH 8.3, 405 nm) was found to be 0.3 mE/min.
As to `CCCCCCCCCCCCCCCCC(COCC(COC(=O)CCCC(=O)Oc1ccc2nc3ccc(=O)cc-3oc2c1C)OC)OC` (racemic) [Example 33, 1-0-(2-Methoxy-octadecyl)-2-0-methyl-rac-glycero-3-glutaric acid-(6-methylresorufin) ester], the blank in data set [4] (setting [6]) amounted to 8.4 mE/min. Also, in data set [1], the Esterase sensitivity worked out at 25.3 mE/min. The compound also displayed a Lipase sensitivity with lipase (EC 3.1.1.3) [3] (setting [6]) of 19.0 mE/min per 100 U/1.
Turning to `CCCCCCCCCCCCOCC(COC(=O)CCC(=O)Oc1ccc2nc3ccc(=O)cc-3oc2c1)OCCCCCCCCCCCC` (racemic) [Example 34, 1,2-0-Dilauryl-rac-glycero-3-succinic acid resorufin ester], in the data set on lipase (EC 3.1.1.3) [3] (setting [6]), the Lipase sensitivity worked out at 8.7 mE/min per 100 U/1.
The compound `CCCCCCCCCCCCOCC(CSC(=O)CCCC(=O)Oc1ccc2nc3ccc(=O)cc-3oc2c1C)OCCCCCCCCCCCC` (racemic) [Example 36, 1,2-0-Dilauryl-rac-3-thioglycero-3-S-glutaric acid (6-methylresorufin) ester] came in with an Esterase sensitivity in data set [1] of 1.3 mE/min. Besides, the Lipase sensitivity with lipase (EC 3.1.1.3) [3] (setting [6]) is listed as 4.1 mE/min per 100 U/1.
In data set [4] (setting [6]), `CCCCCCCCCCCCSCC(COC(=O)CCCC(=O)Oc1ccc2nc3ccc(=O)cc-3oc2c1C)SCCCCCCCCCCCC` (racemic) [Example 37, 1,2-S-Dilauryl-rac-1,2-dithioglycero-3-glutaric acid (6-methylresorufin) ester] gave a blank of 3 mE/min. The same compound yielded an Esterase sensitivity in data set [1] of 3.4 mE/min. This compound also displayed a Lipase sensivity in the data set with lipase (EC 3.1.1.3) [3] (emulsion prepared as in Example 22, no lipase activity printed) of 24 mE/min.
Consider `CCCCCCCCCCCCCCCCOC[C@H](COC(=O)CCCC(=O)Oc1ccc2nc3ccc(=O)cc-3oc2c1)OCCCCCCCCCCCCCCCC` [Example 11, 1,2-O-Dihexadecyl-sn-glycero-3-glutaric acid resorufin ester], for which, in data set [1], the “esterase sensitivity (activity 20,000 U/l)” value is on record as 1.8 ΔmE/min. Besides, the blank in data set [2] was 0.1 ΔmE/min. In the data set with lipase (EC 3.1.1.3) [3], the “lipase sensitivity (activity 100 U/l)” value was 0.97 ΔmE/min.
Consider `CCCCCCCCCCCCCCCCC(COC(=O)CCCC(=O)Oc1ccc2nc3ccc(=O)cc-3oc2c1C)OCCCCCCCCCCCC` (stereo not shown) [Example 35], for which the Esterase sensitivity in data set [1] is listed as 1.0 mE/min. For the same compound, in the data set on lipase (EC 3.1.1.3) [3] (setting [6]), the Lipase sensitivity is reported as 25.5 mE/min per 100 U/1.
